Experimental data reported in US20260317299A1, “PIKFYVE PROTEIN KINASE DEGRADATION AGENT AND USE THEREOF” (Shanghai Institute of Organic Chemistry, Chinese Academy of …, priority 2023, published 2026).

Molecular target: T1, PIKfyve (Homo sapiens, UniProt Q9Y2I7)
T1 construct: endogenous in cells; host or cells: VCaP
Assay: Degradation of PIKfyve proteins in VCaP tumor cells (24 h, Western blot)
Type: cell-based
Details: 37° C., compared with DMSO control, WB, read-out: DC50 (concentration that achieves 50% degradation activity)
Protocol: Method: 200 μL of cells at a density of 5×10^6 cells/ml were inoculated into a 6-well plate, and then different concentrations of drugs were added. The cells were treated at 37° C. for 24 h. The […] was collected and washed with PBS twice. Then, 100-200 μL of 1×SDS lysate was added, and the cell lysate was collected into a centrifuge tube. The cells were disrupted ultrasonically for 10-20 sec, and boiled for 10 min. Protein samples were subjected to SDS-PAGE electrophoresis at a voltage of 90 V, transferred to PVDF membranes at 110 V, blocked with 5% BSA for 4 h, incubated with primary antibodies (PIKfyve, GAPDH) at 4° C. overnight, and incubated with secondary antibodies (anti-Rabbit IgG or anti-Mouse IgG) at room temperature. The membranes were washed with TBST buffer, developed with an ECL developing solution, and then imaged to obtain protein band signals, with single-concentration WB results as shown in FIG. 1. Compared with the DMSO control group, the concentration that achieves 50% degradation activity is defined as DC50.

T1 sequence (Q9Y2I7 whole entry): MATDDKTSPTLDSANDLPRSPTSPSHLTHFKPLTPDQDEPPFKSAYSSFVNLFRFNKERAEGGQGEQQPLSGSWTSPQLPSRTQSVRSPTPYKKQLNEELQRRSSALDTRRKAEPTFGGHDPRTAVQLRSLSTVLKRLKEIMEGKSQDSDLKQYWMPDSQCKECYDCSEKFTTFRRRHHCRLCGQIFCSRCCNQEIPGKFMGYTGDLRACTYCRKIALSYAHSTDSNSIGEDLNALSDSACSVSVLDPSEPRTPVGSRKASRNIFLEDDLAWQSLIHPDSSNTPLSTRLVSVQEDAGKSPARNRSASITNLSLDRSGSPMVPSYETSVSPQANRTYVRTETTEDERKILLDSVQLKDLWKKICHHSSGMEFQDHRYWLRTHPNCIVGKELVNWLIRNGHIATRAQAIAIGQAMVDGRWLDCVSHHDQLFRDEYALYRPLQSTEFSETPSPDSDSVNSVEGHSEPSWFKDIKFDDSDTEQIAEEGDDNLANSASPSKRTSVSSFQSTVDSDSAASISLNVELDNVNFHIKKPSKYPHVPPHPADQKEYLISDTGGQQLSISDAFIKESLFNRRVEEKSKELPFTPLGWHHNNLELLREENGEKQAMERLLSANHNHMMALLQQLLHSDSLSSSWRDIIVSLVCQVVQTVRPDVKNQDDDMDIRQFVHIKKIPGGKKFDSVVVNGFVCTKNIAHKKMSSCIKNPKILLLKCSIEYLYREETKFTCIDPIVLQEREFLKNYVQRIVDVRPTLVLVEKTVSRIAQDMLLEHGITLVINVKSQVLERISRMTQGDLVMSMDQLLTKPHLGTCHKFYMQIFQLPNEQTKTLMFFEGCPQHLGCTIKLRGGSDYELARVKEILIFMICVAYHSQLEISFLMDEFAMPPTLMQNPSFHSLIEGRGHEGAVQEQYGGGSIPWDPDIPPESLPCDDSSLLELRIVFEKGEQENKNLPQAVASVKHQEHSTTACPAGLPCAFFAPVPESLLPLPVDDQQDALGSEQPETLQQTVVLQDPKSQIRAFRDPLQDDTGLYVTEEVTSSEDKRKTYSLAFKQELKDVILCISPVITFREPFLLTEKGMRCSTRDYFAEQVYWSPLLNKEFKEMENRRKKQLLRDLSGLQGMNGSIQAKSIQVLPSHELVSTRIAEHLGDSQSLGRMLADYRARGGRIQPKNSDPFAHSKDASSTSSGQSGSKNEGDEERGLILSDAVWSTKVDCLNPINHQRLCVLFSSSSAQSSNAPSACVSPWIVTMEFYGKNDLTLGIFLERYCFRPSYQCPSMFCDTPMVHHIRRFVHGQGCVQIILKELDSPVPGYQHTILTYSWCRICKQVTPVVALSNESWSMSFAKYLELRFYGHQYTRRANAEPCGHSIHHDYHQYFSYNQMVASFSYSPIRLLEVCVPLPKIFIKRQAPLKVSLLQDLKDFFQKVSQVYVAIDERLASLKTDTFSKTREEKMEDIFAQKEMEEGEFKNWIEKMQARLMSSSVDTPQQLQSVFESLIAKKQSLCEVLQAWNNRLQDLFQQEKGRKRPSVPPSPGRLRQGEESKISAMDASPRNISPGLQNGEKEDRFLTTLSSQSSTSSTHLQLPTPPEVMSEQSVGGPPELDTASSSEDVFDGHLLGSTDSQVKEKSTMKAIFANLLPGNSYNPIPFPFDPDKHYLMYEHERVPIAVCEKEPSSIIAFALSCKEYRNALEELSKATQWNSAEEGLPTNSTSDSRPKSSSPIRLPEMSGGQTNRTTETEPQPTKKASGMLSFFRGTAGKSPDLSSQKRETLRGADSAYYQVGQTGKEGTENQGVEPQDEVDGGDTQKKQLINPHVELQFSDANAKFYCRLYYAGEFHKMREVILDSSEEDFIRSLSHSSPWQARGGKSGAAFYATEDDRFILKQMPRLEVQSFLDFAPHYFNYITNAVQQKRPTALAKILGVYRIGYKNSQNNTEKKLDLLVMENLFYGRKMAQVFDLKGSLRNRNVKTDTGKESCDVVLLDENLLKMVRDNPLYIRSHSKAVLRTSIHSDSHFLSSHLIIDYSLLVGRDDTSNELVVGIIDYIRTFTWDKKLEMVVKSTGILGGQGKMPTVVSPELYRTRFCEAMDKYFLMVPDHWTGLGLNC

Row | SMILES | DC50 [µM]
1 | Cc1cccc(/C=N/Nc2cc(N3CCOCC3)nc(OCCc3ccc(NC(=O)CNC(=O)COc4cc(-c5scnc5C)ccc4CNC(=O)[C@@H]4C[C@@H](O)CN4C(=O)[C@@H](NC(=O)C4(F)CC4)C(C)(C)C)cc3)n2)c1 [Example 54, (2S,4R)-1-((S)-2-(1-fluorocyclopropane-1-carboxamido)-3,3-dimethylbutanoyl)-4-hydroxy-N-(2-(2-((2-((4-(2-((4-(2-((E)-3-methylbenzylidene)hydrazino)-6-morpholinopyrimidin-2-yl)oxy)ethyl)phenyl)amino)-2-oxoethyl)amino)-2-oxoethoxy)-4-(4-methylthiazol-5-yl)benzyl)pyrrolidine-2-carboxamide] | 0.001 to 0.1
2 | Cc1cccc(/C=N/Nc2cc(N3CCOCC3)nc(OCCc3ccc(NC(=O)CCCNC(=O)COc4cc(-c5scnc5C)ccc4CNC(=O)[C@@H]4C[C@@H](O)CN4C(=O)[C@@H](NC(=O)C4(F)CC4)C(C)(C)C)cc3)n2)c1 [Example 55, (2S,4R)-1-((S)-2-(1-fluorocyclopropane-1-carboxamido)-3,3-dimethylbutanoyl)-4-hydroxy-N-(2-(2-((4-((4-(2-((4-(2-((E)-3-methylbenzylidene)hydrazino)-6-morpholinopyrimidin-2-yl)oxy)ethyl)phenyl)amino)-4-oxobutyl)amino)-2-oxoethoxy)-4-(4-methylthiazol-5-yl)benzyl)pyrrolidine-2-carboxamide] | 0.001 to 0.1
3 | Cc1cccc(/C=N/Nc2cc(N3CCOCC3)nc(OCCc3ccc(NC(=O)CSC(C)(C)[C@H](NC(=O)C4(F)CC4)C(=O)N4C[C@H](O)C[C@H]4C(=O)NCc4ccc(-c5scnc5C)cc4)cc3)n2)c1 [Example 57, (2S,4R)-1-((R)-2-(1-fluorocyclopropane-1-carboxamido)-3-methyl-3-((2-((4-(2-((4-(2-((E)-3-methylbenzylidene)hydrazino)-6-morpholinopyrimidin-2-yl)oxy)ethyl)phenyl)amino)-2-oxoethyl)thio)butanoyl)-4-hydroxy-N-(4-(4-methylthiazol-5-yl)benzyl)pyrrolidine-2-carboxamide] | 0.001 to 0.1
4 | Cc1cccc(/C=N/Nc2cc(N3CCOCC3)nc(OCCc3ccc(NC(=O)CNC(=O)CSC(C)(C)[C@H](NC(=O)C4(F)CC4)C(=O)N4C[C@H](O)C[C@H]4C(=O)NCc4ccc(-c5scnc5C)cc4)cc3)n2)c1 [Example 58, (2S,4R)-1-((R)-2-(1-fluorocyclopropane-1-carboxamido)-3-methyl-3-((2-((2-((4-(2-((4-(2-((E)-3-methylbenzylidene)hydrazino)-6-morpholinopyrimidin-2-yl)oxy)ethyl)phenyl)amino)-2-oxoethyl)amino)-2-oxoethyl)thio)butanoyl)-4-hydroxy-N-(4-(4-methylthiazol-5-yl)benzyl)pyrrolidine-2-carboxamide] | 0.1 to 10
5 | Cc1cccc(/C=N/Nc2cc(N3CCOCC3)nc(OCCc3ccc(NC(=O)CCCNC(=O)CSC(C)(C)[C@H](NC(=O)C4(F)CC4)C(=O)N4C[C@H](O)C[C@H]4C(=O)NCc4ccc(-c5scnc5C)cc4)cc3)n2)c1 [Example 59, (2S,4R)-1-((R)-2-(1-fluorocyclopropane-1-carboxamido)-3-methyl-3-((2-((4-((4-(2-((4-(2-((E)-3-methylbenzylidene)hydrazino)-6-morpholinopyrimidin-2-yl)oxy)ethyl)phenyl)amino)-4-oxobutyl)amino)-2-oxoethyl)thio)butanoyl)-4-hydroxy-N-(4-(4-methylthiazol-5-yl)benzyl)pyrrolidine-2-carboxamide] | 0.1 to 10
6 | Cc1cccc(/C=N/Nc2cc(N3CCOCC3)nc(OCCc3ccc(NC(=O)CCCCCNC(=O)CSC(C)(C)[C@H](NC(=O)C4(F)CC4)C(=O)N4C[C@H](O)C[C@H]4C(=O)NCc4ccc(-c5scnc5C)cc4)cc3)n2)c1 [Example 60, (2S,4R)-1-((R)-2-(1-fluorocyclopropane-1-carboxamido)-3-methyl-3-((2-((6-((4-(2-((4-(2-((E)-3-methylbenzylidene)hydrazino)-6-morpholinopyrimidin-2-yl)oxy)ethyl)phenyl)amino)-6-oxohexyl)amino)-2-oxoethyl)thio)butanoyl)-4-hydroxy-N-(4-(4-methylthiazol-5-yl)benzyl)pyrrolidine-2-carboxamide] | 0.1 to 10
